For test [1], the system named is humans. To be noted: cited from earlier work.
In test [2] the test system is ob/ob mice. As to the kind of experiment: Food intake test in ob/ob mice. It counts as in vivo. The procedure:
5-HT2C receptor agonists (2R)-methyl-1-{3-[2-(3-pyridinyloxy)ethoxy]-2-pyrazinyl}piperazine, fumarate (“PNU-183933F”) and (2R)-1-(3-{2-[(2-ethoxy-3-pyridinyl)oxy]ethoxy}-2-pyrazinyl)-2-methylpiperazine, fumarate (“BVT.2938F”) were dissolved in saline (0.9% NaCl) and diluted in the same vehicle to the appropriate concentration.
5-HT6 receptor antagonists 6-methyl-9-(phenylsulfonyl)-1,2,3,4,5,6-hexahydroazepino[4,5-b]indole, hydrochloride (“PNU-186053A”) and 1-(phenylsulfonyl)-4-(1-piperazinyl)-1H-indole, hydrochloride (5-HT6 receptor antagonist (“BVT.5182C”) were dissolved and diluted in 25% cyclodextrin.
Male mice 8-9 weeks old (C57BL/6JBom-Lep^ob (ob/ob), Bomholtsgaard, Denmark) with an average body weight of 45 g were used. The animals were housed singly in cages at 23±1° C., 40-60% humidity and had free access to water and standard laboratory chow. The 12/12 h light/dark cycle was set to lights off at 5 p.m. The animals were conditioned for at least one week before start of study. During experimental sessions, the animals obtained special chow (BioServ, Frenchtown, N.J., USA dust-free precision pellets weighing 20 mg each).
At the start of the study the animals were transferred to special cages “operant test cages” (Habitest Modular Animal Behavior Test System; Colbourn Instr, Allentown, Pa., USA). These cages consist of a feeder trough with sensors for measurement of food intake, an optic lickometer for registration of water intake and an infrared-based monitor for recording overall general motor activity. The monitors are coupled to a computer, which controls and monitor events continuously. Food pellets were weighed to the amount needed for one whole study and water bottles were filled with fresh tap water and weighed. The animals were conditioned to their new environment for three days to establish baseline values. The animals were weighed at 3 p.m. at the start and at the end of the study. The compounds were administered between 4.20 and 5.00 p.m. before dark onset. Three groups of animals received (i) 5-HT6 antagonist in 25% cyclodextrin; (ii) 5-HT2C agonist in saline; and (iii) the combination 5-HT2C agonist/5-HT6 antagonist, respectively. When combined, 5-HT6 antagonist or saline was administered 30 min before administration of the 5-HT2C agonist or 25% cyclodextrin. A fourth group received respectively vehicle administered in the same way. The study ended on the fifth day. Weighing was performed with a computer-assisted Mettler-Toledo PR5002/PR802 balance.
Each dose group consisted of 12-16 animals. […] The values were expressed as % of basal food intake (mean±SEM) for the difference between food intake before treatment and 3 h (5 pm-8 pm), 6 h (5 pm-11 pm), 12 h (5 pm-5 am), 21 h (5 pm-2 pm).

Test [3] concerns mice that express the normal 5-HT2C receptor / mutated inactive form. To be noted: cited from earlier work.
Where [4] appears, read: combination PNU-186053A 50 mg/kg subcutaneously + PNU-183933F 50 mg/kg per orally, FIG. 1.
[5] abbreviates: combination BVT.2938F 5 mg/kg subcutaneously + BVT.5182C 3 mg/kg subcutaneously, at 12 and 21 hours following administration, FIG. 2.

Read-outs that look alike come from different tables or passages of the source.

In the case of `Cn1c2c(c3ccccc31)CCNCC2` [U-22394A], in test [1] (nine weeks of treatment), the body weight result was “reduce body weight”.

For `Cl.Cn1c2c(c3cc(S(=O)(=O)c4ccccc4)ccc31)CCNCC2` [PNU-186053A, 6-methyl-9-(phenylsulfonyl)-1,2,3,4,5,6-hexahydroazepino[4,5-b]indole, hydrochloride], in test [2] (setting [4]), the “food consumption (food intake), combined treatment vs compounds given alone” value (from here on “food consumption … vs compounds given alone”) is listed as “decreased food consumption significantly more than the compounds given alone”.

For `Cl.O=S(=O)(c1ccccc1)n1ccc2c(N3CCNCC3)cccc21` [BVT.5182C, 1-(phenylsulfonyl)-4-(1-piperazinyl)-1H-indole, hydrochloride], the “food consumption … vs compounds given alone” value in test [2] (setting [5]) is “significantly more than the compounds given alone”. For the molecule `C[C@@H]1CNCCN1c1nccnc1OCCOc1cccnc1.O=C(O)/C=C/C(=O)O` [PNU-183933F, (2R)-methyl-1-{3-[2-(3-pyridinyloxy)ethoxy]-2-pyrazinyl}piperazine, fumarate], the “food consumption … vs compounds given alone” value in test [2] (setting [4]) is “decreased food consumption significantly more than the compounds given alone”. For `CCOc1ncccc1OCCOc1nccnc1N1CCNC[C@H]1C.O=C(O)/C=C/C(=O)O` [BVT.2938F, (2R)-1-(3-{2-[(2-ethoxy-3-pyridinyl)oxy]ethoxy}-2-pyrazinyl)-2-methylpiperazine, fumarate], the “food consumption … vs compounds given alone” value in test [2] (setting [5]) is given as “significantly more than the compounds given alone”. For the molecule `Clc1cccc(N2CCNCC2)c1` [m-CPP, m-chlorophenylpiperazine], the food intake entry in test [3] (mice expressing the mutated inactive form of the 5-HT2C receptor) is on record as “lacks activity”; in test [3] (mice that express the normal 5-HT2C receptor) it was “reduces food intake”. Also, in test [1] (two weeks of treatment), the body weight result was “reduce body weight”.

The values above are taken from patent US6818639B2, “Pharmaceutical combination formulation and method of treatment with the combination” (Biovitrum AB, priority 2000, dated 2004).
